# Measured values as given in US6852723B2, “Aralkyl substituted piperazine compounds” (CV Therapeutics, Inc., priority 2000, dated 2005).
# Assays:
# [1] = test system: mitochondrial fatty acid oxidation using palmitoyl CoA as substrate; assay: Palmitoyl CoA oxidation in isolated rat heart mitochondria (14C bicarbonate trapped); format: biochemical; conditions: 15 min at 30° C.
# Protocol: (§1) Rat heart mitochodria were isolated by the method of Nedergard and Cannon (Methods in Enzymol. 55, 3, 1979).
# (§2) Palmitoyl CoA oxidation—The Palmitoyl CoA oxidation was carried out in a total volume of 100 microliters containing the following agents: 110 mM KCl, 33 mM Tris buffer at pH 8, 2 mM KPi, 2 mM MgCl2, 0.1 mM EDTA, 14.7 microM defatted BSA, 0.5 mM malic acid, 13 mM carnitine, 1 mM ADP, 52 micrograms of mitochondrial protein, and 16 microM 1-C14 palmitoyl CoA (Sp. Activity 60 mCi/mmole; 20 microCi/ml, using 5 microliters per assay). The compounds of this invention were added in a DMSO solution at the following concentrations: 100 microM, 30 microM, and 3 microM. In each assay, a DMSO control was used. After 15 min at 30° C., the enzymatic reaction was centrifuged (20,000 g for 1 min), and 70 microliters of the supernatant was added to an activated reverse phase silicic acid column (approximately 0.5 ml of silicic acid). The column was eluted with 2 ml of water, and 0.5 ml of the eluent was used for scintillation counting to determine the amount of C^14 trapped as C^14 bicarbonate ion. The data are presented as % activity of control.
# [2] = Metabolic stability in human liver S-9 fractions (LC/MS of parent remaining); conditions: for Liver S-9 stability factor: % parent remaining after 30 min at 37 C divided by average % ranolazine remaining (57%), 10 μM compound, 2 mg/mL S9
# Protocol: Metabolic Stability: As a measure of metabolic stability the compounds of this invention were incubated with human liver S-9 microsomal fractions. After, 30 minutes at 37 C., the amount of parent drug remaining was determined using LC-mass spec. The response factors for each compound was determined by establishing a standard curve and using an internal standard during the analysis of the samples. […] The compounds of this invention were assayed as described in the protocol below and the percentage of parent remaining was divided by the average % of ranolazine remaining (57%) affording a metabolic stability factor.
# The purpose of this experiment is to compare the percentages remaining for compounds of this invention with the percentage remaining for ranolazine after 30 minutes of incubation with human liver S9 fractions.
# The following reagents were used; Potassium phosphate, 0.5M pH 74. (incubation buffer), kept at room temperature; 0.05M MgCl2 kept at 4° C.; β-Nicotinamide adenine dinucleotide phosphate, tetrasodium salt, reduced form (NADPH), 0.02M solution in water (˜16.6 mg/mL) from Sigma Lot # 79H7044 prepared on day of use.
# Incubation mixtures were prepared as follows:
# Combine all components with incubation buffer and re-pipette 200 μL/tube+25 μL of the compound being tested along with 25 μL of S-9.
# After 5 min of pre-incubation at 37° C., at 0 and 30 min after starting the reaction, a 50 μl aliquot of the incubation mixture was removed and added to 100 μL of 9:1 acetonitrile: methanol containing the internal standard.
# The mixture was centrifuged and a 100 μL aliquot of the supernatant was diluted in 1 mL of solvent C (0.1% Formic Acid in water). Then samples were analyzed for change between the ratio of compound to internal standard at time zero and 30 minutes by LC/MS (injected 10 μL).
# Samples were analyzed for the starting compounds and potential metabolite/s by LC/MS using an internal standard on a Micromass platform mass spec with a Keystone Inc. BDS ODS-C18 column with a flow rate of 0.25 ml/min.
# [3] = test system: mitochondrial fatty acid oxidation using palmitoyl carnitine as substrate; assay: Palmitoyl carnitine oxidation in isolated rat heart mitochondria (14C bicarbonate trapped); format: biochemical; conditions: 15 min at 30° C.
# Protocol: as §1
# as §2, with “Carnitine Oxidation—The” for “CoA oxidation—The”, “carnitine” for “CoA”, “0.1mg/ml of” for “14.7 microM”, “3” for “13 mM carnitine, 1”, “43” for “16”
Liver S-9 stability factor [2],Compound,Palmitoyl CoA oxidation activity (% of DMSO control) ([1]; 100 μM compound) [%],further results
–,"Cc1cccc(C)c1NC(=O)CN1CCN(CC(O)CCc2ccc(C(F)(F)F)cc2)CC1 (stereo not shown) [Compound 21, N-(2,6-dimethylphenyl)-2-(4-{2-hydroxy-4-[4-(trifluoromethyl)phenyl]butyl}piperazinyl)acetamide]",56,–
–,"COc1ccc(CCC(O)CN2CCN(CC(=O)Nc3c(C)cccc3C)CC2)cc1 (stereo not shown) [Compound 16, N-(2,6-dimethylphenyl)-2-{4-[4-(4-methoxyphenyl)-2-hydroxybutyl]piperazinyl}acetamide]",37,–
1.03,"COc1ccccc1CC(O)CN1CCN(CC(=O)Nc2c(C)cccc2C)CC1 (stereo not shown) [Compound 10, N-(2,6-dimethylphenyl)-2-{4-[2-hydroxy-3(2-methoxyphenyl)-propyl]piperazinyl}acetamide]",–,–
1.05,"COc1cc(CC(O)CN2CCN(CC(=O)Nc3c(C)cccc3C)CC2)cc(OC)c1OC (stereo not shown) [Compound 24, N-(2,6-dimethylphenyl)-2-{4-[2-hydroxy-3-(3,4,5-trimethoxyphenyl)prophyl]piperazinyl}acetamide]",72,–
–,"Cc1cccc(C)c1NC(=O)CN1CCN(CC(O)CCc2ccc(C(C)(C)C)cc2)CC1 (stereo not shown) [Compound 19, 2-(4-{4-[4-(tert-butyl)phenyl]-2-hydroxybutyl}piperazinyl)-N-(2,6-dimethylphenyl)acetamide]",35,–
0.5,"Cc1cccc(C)c1NC(=O)C(C)(C)N1CCN(CC(O)Cc2ccccc2)CC1 (stereo not shown) [Compound 23, N-(2,6-Dimethyl-phenyl)-2-[4-(2-hydroxy-3-phenyl-propyl)-piperazin-1-yl]-isobutyramide]",–,–
–,"Cc1cccc(C)c1NC(=O)CN1CCN(CC(O)CCc2ccccc2F)CC1 (stereo not shown) [Compound 20, N-(2,6-dimethylphenyl)-2-{4-[4-(2-fluorophenyl)-2-hydroxybutyl]piperazinyl}acetamide]",56,–
0.10,"Cc1cccc(C)c1NC(=O)CN1CCN(CC(O)Cc2cccc3ccccc23)CC1 (stereo not shown) [Compound 13, N-(2,6-dimethylphenyl)-2-[4-(2-hydroxy-3-naphthylpropyl)piperazinyl]acetamide]",–,–
0.68,"Cc1cccc(C)c1NC(=O)CN1CCN(CC(O)CCc2ccccc2Cl)CC1 (stereo not shown) [Compound 18, N-(2,6-dimethylphenyl)-2-{4-[4-(2-chlorophenyl)-2-hydroxybutyl]piperazinyl}acetamide]",78,–
0.71,"Cc1cccc(C)c1NC(=O)CN1CCN(CC(O)CCc2c(F)cccc2F)CC1 (stereo not shown) [Compound 17, 2-{4-[4-(2,6-difluorophenyl)-2-hydroxybutyl]piperazinyl}-N-(2,6-dimethylphenyl)acetamide]",78,–
1.18,"Cc1cccc(C)c1NC(=O)CN1CCN(CC(O)CCc2ccccc2)CC1 (stereo not shown) [Compound 9, N-(2,6-dimethylphenyl)-2-[4-(2-hydroxy-4-phenylbutyl)piperazinyl]acetamide]",84,Palmitoyl CoA oxidation activity (% of DMSO control) ([1]; 30 μM compound): 84%
1.38,"Cc1cccc(C)c1NC(=O)CN1CCN(CC(O)Cc2ccccc2)CC1 (stereo not shown) [Compound 12, N-(2,6-dimethylphenyl)-2-{4-[2-hydroxy-3-phenylpropyl]piperazinyl}acetamide]",42,"Palmitoyl CoA oxidation activity (% of DMSO control) ([1]; 30 μM compound): 95%; Mitochondrial palmitoyl carnitine oxidation, % activity of DMSO control ([3]; 100 μM compound): 56%"
1.0,"COc1ccccc1OCC(O)CN1CCN(CC(=O)Nc2c(C)cccc2C)CC1 (racemic) [Ranolazine, (±)-N-(2,6-dimethylphenyl)-4-[2-hydroxy-3-(2-methoxyphenoxy)-propyl]-1-piperazineacetamide, reference compound]",75,"Palmitoyl CoA oxidation activity (% of DMSO control) ([1]; 30 μM compound): 90%; Mitochondrial palmitoyl carnitine oxidation, % activity of DMSO control ([3]; 30 μM compound): 98%; Mitochondrial palmitoyl carnitine oxidation, % activity of DMSO control ([3]; 100 μM compound): 63%; percentage of ranolazine remaining at the 30 minute time point ([2]; human liver S-9, 30 minutes at 37 C, average of five experiments): 57%"
1.49,Cc1cccc(C)c1NC(=O)C(C)(C)N1CCN(CC(O)Cc2ccc3c(c2)OCO3)CC1 (stereo not shown) [Compound 22],–,–
1.46,"Cc1cccc(C)c1NC(=O)CN1CCN(CC(O)Cc2ccc3c(c2)OCO3)CC1 (stereo not shown) [Compound 7, 2-[4-(3-Benzo[1,3]dioxol-5-yl-2-hydroxy-propyl)-piperazin-1-yl]-N-(2,6-dimethyl-phenyl)-acetamide]",–,–
1.33,"COc1ccc(CC(O)CN2CCN(CC(=O)Nc3c(C)cccc3C)CC2)cc1 (stereo not shown) [Compound 11, N-(2,6-dimethylphenyl)-2-{4-[2-hydroxy-3-(4-methoxyphenyl)propyl]piperazinyl}acetamide]",83,Palmitoyl CoA oxidation activity (% of DMSO control) ([1]; 30 μM compound): 92%
